Molecules are shown by their SMILES.

The test system of experiment [1] is P15 promoter in leukaemia KG1 cells. The experiment can be described thus: C5 DNA methylation analysis of CDKN2B (P15) promoter. The class given is cell-based, human. To be noted: after 3 days, at 0.32 μM. As for the experimental part: (§1) Cancer cell lines (colon HCT116 or leukaemia KG1) were treated with the compounds as indicated in the Data Tables and then analysed as following.
(§2) DNA was isolated from cultured cells using the DNeasy Blood and Tissue Kit according to the manufacturer's specifications (Qiagen). DNA bisulphite conversion was performed on 2 μg of DNA using the EZ DNA Methylation-Gold Kit according to the manufacturer's specifications (Zymo Research) and bisulfited DNA was eluted with 10 μL of water.
(§3) Two different techniques were used to analyse the DNA methylation profile after bisulfite conversion of genomic DNA: (A) cloning and sequencing or (B) COBRA. The primers for each promoter are specified in Table 4.
(§4) Sequencing of bisulfite-treated DNA allowing resolution of the methylation state of every cytosine in the target sequence, at single molecule resolution, is considered as the “gold standard” for DNA methylation analysis.
(§5) Bisulfite-specific primers with a minimum length of 18 bp were designed using Primer 3 program. […]
(§6) PCR amplicons were cloned with the StrataClone Ultra Blunt PCR Cloning Kit (Agilent Technologies), according to the manufacturers' instructions and up to 24 clones were picked for sequencing. […] Electrophoregram files and methylation signals at a given CpG site were quantified using the BISMA software as described above.

Experiment [2] deals with T1, His-DNMT1 (182 kDa, human) (Homo sapiens, UniProt P26358).
T1 construct: His; made in house
T1 sequence (P26358 whole entry): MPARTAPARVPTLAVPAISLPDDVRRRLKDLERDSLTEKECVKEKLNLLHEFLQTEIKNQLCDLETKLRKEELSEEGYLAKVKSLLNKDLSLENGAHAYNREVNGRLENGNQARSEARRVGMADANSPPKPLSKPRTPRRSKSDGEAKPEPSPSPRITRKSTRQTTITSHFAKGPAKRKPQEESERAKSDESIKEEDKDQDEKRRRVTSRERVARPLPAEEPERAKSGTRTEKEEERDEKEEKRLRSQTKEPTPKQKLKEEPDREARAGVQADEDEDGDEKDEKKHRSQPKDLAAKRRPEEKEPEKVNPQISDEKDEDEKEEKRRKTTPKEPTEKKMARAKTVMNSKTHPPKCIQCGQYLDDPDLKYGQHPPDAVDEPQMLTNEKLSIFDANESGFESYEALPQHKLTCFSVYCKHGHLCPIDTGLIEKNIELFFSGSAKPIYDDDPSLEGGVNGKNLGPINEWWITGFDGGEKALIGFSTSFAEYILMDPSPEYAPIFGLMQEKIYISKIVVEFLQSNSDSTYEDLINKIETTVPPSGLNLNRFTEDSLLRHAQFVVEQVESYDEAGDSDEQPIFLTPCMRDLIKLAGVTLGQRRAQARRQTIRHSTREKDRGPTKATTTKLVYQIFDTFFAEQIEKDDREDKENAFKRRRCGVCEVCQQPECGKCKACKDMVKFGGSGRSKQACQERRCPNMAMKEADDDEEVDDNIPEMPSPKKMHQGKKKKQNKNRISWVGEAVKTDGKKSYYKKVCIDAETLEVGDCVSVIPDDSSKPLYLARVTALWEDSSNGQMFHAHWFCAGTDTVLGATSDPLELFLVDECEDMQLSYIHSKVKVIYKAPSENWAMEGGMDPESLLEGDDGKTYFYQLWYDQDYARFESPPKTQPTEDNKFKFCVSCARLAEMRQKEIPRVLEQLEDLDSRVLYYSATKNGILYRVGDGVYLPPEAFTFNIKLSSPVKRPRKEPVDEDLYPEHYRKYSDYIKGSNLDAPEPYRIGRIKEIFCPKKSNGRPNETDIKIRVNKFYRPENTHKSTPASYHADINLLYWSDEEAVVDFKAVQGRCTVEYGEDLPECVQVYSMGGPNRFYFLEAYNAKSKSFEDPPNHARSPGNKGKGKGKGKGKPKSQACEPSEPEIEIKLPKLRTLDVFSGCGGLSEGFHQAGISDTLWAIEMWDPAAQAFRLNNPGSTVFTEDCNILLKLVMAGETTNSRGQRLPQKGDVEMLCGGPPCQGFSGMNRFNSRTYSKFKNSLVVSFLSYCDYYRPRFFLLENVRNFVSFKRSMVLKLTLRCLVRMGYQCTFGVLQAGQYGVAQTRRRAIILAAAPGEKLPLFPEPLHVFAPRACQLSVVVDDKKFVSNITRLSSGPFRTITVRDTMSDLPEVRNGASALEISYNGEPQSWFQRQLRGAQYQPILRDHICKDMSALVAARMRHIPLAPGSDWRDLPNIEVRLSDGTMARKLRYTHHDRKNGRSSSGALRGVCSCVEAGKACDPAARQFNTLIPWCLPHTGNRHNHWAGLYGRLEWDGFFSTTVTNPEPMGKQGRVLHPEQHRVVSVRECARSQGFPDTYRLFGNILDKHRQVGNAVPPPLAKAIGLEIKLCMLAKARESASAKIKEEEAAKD
The experiment can be described thus: hDNMT1 assay ([methyl-3H] SAM Flashplate). In kind it is biochemical. The following applies: for inhibition at 10 µM: read-out: hDNMT 1 inhibition, Inhibition (%) 10 μM; for inhibition at 32 µM: read-out: hDNMT 1 inhibition, Inhibition (%) 32 μM. Here is the method: His-DNMT1 (182 kDa, human) was cloned, expressed and purified as described (Halby et al. Chem Bio Chem 2012, 13, 157-165). The reaction was performed in a 10 μL total reaction volume in low volume NBS™ 384-well microplates (Corning), containing the tested compound (up to 1% DMSO), 1 μM of a SAM/[methyl-^3H] SAM (3TBq/mmol, PerkinElmer) mix in a ratio of 3-to-1 (isotopic dilution 1*:3), 0.3 μM of biotinylated hemimethylated DNA duplex (5′-GATmCGCmCGATGmCGmCGAATmCGmCGATmCGATGmCGAT-3′ and BIOT-5′-[…]-3′), and 90 nM of DNMT1 in methylation buffer (20 mM HEPES pH 7.2, 1 mM EDTA, 50 mM KCl, 25 μg/mL BSA). The reaction was incubated at 37° C. for 2 hours. 8 μL are then transferred into a streptavidin 96-well scintillant coated Flashplate™ (PerkinElmer) containing 190 μL of 20 μM SAH in 50 mM Tris-HCl pH 7.4. The Flashplate™ was agitated at room temperature for 1 hour and read in 200 μL of 50 mM Tris-HCl pH 7.4 on TopCount NXT (PerkinElmer). The percentage of inhibition is reported. The formula used to calculate the percentage of inhibition is [(X−Y)/X]×100, where X is the signal determined in the absence of the inhibitor and Y is the signal obtained in the presence of the inhibitor.

The next experiment deals with P73 promoter in HCT116. The experiment can be described thus: C5 DNA methylation analysis of P73 promoter. The class given is cell-based, human. The following applies: after 7 days, at 0.32 μM. Here is the method: as §1, §2, §3, §4, §5, §6

`COc1ccc2cc1Oc1ccc(cc1)C[C@@H]1NCCc3cc(OC)c4c(c31)Oc1cc3c(cc1O4)CCN(C)[C@H]3C2` [Trilobine (1), trilobine]: in experiment [1], the “Demethylation P15/KG1” value is −25% after. For the same compound, the inhibition (commonly the share of the control response that was lost under treatment) at 10 µM in experiment [2] came out at 4%.

As for `CCN(CC)CCCNC(=S)N1CCc2cc3c4cc2[C@@H]1Cc1ccc(OC)c(c1)Oc1ccc(cc1)C[C@H]1c2c(cc(OC)c(c2O4)O3)CCN1C(=S)NCCCN(CC)CC` [Product 41], the “Demethylation P73*/HCT116” value in the experiment with P73 promoter in HCT116 is recorded as “*−24% after 7 days”. Also, the EC50 (as a rule, the concentration at which the effect is half-maximal) in experiment [2] (read-out: EC50 (μM), hDNMT 1 inhibition) stood at 11 ± 0.7 µM. Besides, in experiment [2], the inhibition at 10 µM is 60% and the inhibition at 32 µM came out at 99%.

Turning to `CNC(=O)N1CCc2cc(OC)c3c4c2[C@@H]1Cc1ccc(cc1)Oc1cc(ccc1OC)C[C@H]1c2cc(c(cc2CCN1C)O3)O4` [Product 44], the “Demethylation P73*/HCT116” value in the experiment on P73 promoter in HCT116 is “*−17% after 7 days”. Further, in experiment [2], the inhibition at 10 µM was found to be 0% and the inhibition at 32 µM was 15%.

The values are drawn from patent US10544156B2, “Hemi-synthetic trilobine analogs for use as a drug” (PIERRE FABRE MEDICAMENT, priority 2015, dated 2020).
